Results from patent US8084457B2, “Pharmaceutically active 4,6-disubstituted aminopyrimidine derivatives as modulators of protein kinases” (Lead Discovery Center GmbH, priority 2003, dated 2011).

Legend:
PM1 cells = experiment: Growth assay using Alamar Blue; type: cell-based
Description: Growth Assay Using Alamar Blue™:
PM1 cells were seeded in 12-well plates at a density of 1.5×10^5 per well with RPMI 1640 containing 10% FCS (fetal calf serum), 1% L-Glutamine and 1% Na-Pyruvate (Sigma). Cells were incubated with compound for 2-3 days (37° C., 6% CO2) followed by subsequent splitting and renewing of compound-containing medium. At each of these time points an aliquot of cells served as data point for relative growth (given in % of the DMSO control [=100%]). The cell number was determined by addition of 10 μL Alamar Blue™ (Biozol) to 100 μL cell aliquots following the manufacturer's instructions.

CDK2/CyclinA = biological target: T1, CDK2/CyclinA (Homo sapiens, UniProt P24941); experiment: Kinase assay determining CDK2/CyclinA activity; type: biochemical
T1 construct: purchased Proqinase
Description: Kinase Assays Determining CDK2/CyclinA and CDK5/p35 Activity:
Kinase assays were performed as described by the manufacturers recommendations (Proqinase for CDK2/CyclinA and Upsate for CDK5/p35).

RSK1 = RSK1 (Homo sapiens, UniProt Q15418); experiment: General kinase assay, selectivity panel: RSK1; type: biochemical; details: 10 μM of compound, in comparison to DMSO (0% inhibition)
Description: (§1) The inhibitory effect of compounds according to the present invention on the activity of protein kinases, depicted in Table 1, can be measured according to the following protocol:
(§2) Pipettinq Sequence: • 1) Add 10 μl 4 fold concentrated Substrate+4 fold concentrated ATP in 3 fold concentrated Reaction Buffer to each well of Assay Plate • 2) Add 10 μl 4 fold concentrated inhibitor in 4% DMSO in H2O to each well except to C− and C+ wells • 3) Add 10 μl 4% DMSO in H2O to C− and C+ wells • 4) Add 10 μl 500 mM EDTA in H2O to − wells • 5) Add 10 μl 50 μCi/ml Adenosine 5′-[γ-^33P]triphosphate in H2O to each well • 6) Add 10 μl 4 fold concentrated kinase in Reaction Buffer to each well • 7) Incubate 1 hr at room temperature • 8) Add 10 μl 50 mM EDTA in H2O to each well except to C− wells • 9) Prepare MAPH plates by adding 200 μl 0.75% H3PO4 to each well • 10) Exhaust 0.75% H3PO4 using Millipore vacuum station • 11) Add 60 μl 0.75% H3PO4 to each well of MAPH Filter Plate • 12) Transfer 30 μl sample per well from Assay Plate to corresponding well of MAPH Filter Plate • 13) Incubate 30 min at room temperature • 14) Wash each well of MAPH Filter Plates 3× with 200 μl 0.75% H3PO4 using Millipore vacuum station. • 15) Add 20 μl Scintillation Liquid to each well of MAPH Filter Plate • 16) Seal MAPH Filter Plate • 17) Store MAPH Filter Plate 30 min in darkness • 18) Quantify radioactivity
(§3) The activity of these protein kinases is depicted as % inhibition in the presence of 10 μM of compound in comparison to DMSO (0% inhibition).

CDK1 = CDK1 (Homo sapiens, UniProt P06493); experiment: General kinase assay, selectivity panel: CDK1; type: biochemical; details: 10 μM of compound, in comparison to DMSO (0% inhibition)
How it was run: (§4)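 Substrate plus ATP in reaction buffer is mixed with compound, [γ-33P]ATP and kinase, then incubated 1 hr at room temperature. The reaction is terminated with EDTA, transferred to filter plates, washed with 0.75% H3PO4 and counted. Activity is given as % inhibition at 10 μM against DMSO.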

EGFR = EGFR (Homo sapiens, UniProt P00533); experiment: General kinase assay, selectivity panel: EGFR; type: biochemical; details: 10 μM of compound, in comparison to DMSO (0% inhibition)
How it was run: as §4

c-Kit = c-Kit (Homo sapiens, UniProt P10721); experiment: General kinase assay, selectivity panel: c-Kit; type: biochemical; details: 10 μM of compound, in comparison to DMSO (0% inhibition)
Description: as §1, §2, §3

PDGFR = experiment: General kinase assay, selectivity panel: PDGFR; type: biochemical; details: 10 μM of compound, in comparison to DMSO (0% inhibition)
Description: as §1, §2, §3

GSK-3β = GSK-3β (Homo sapiens, UniProt P49841); experiment: General kinase assay, selectivity panel: GSK-3β; type: biochemical; details: 10 μM of compound, in comparison to DMSO (0% inhibition)
How it was run: as §4

p56 Lck = p56 Lck (Homo sapiens, UniProt P06239); experiment: General kinase assay, selectivity panel: p56 Lck; type: biochemical; details: 10 μM of compound, in comparison to DMSO (0% inhibition)
How it was run: as §4

cMet = cMet (Homo sapiens, UniProt P08581); experiment: General kinase assay, selectivity panel: cMet; type: biochemical; details: 10 μM of compound, in comparison to DMSO (0% inhibition)
Description: as §1, §2, §3

Abl = Abl (Homo sapiens, UniProt P00519); experiment: General kinase assay, selectivity panel: Abl; type: biochemical; details: 10 μM of compound, in comparison to DMSO (0% inhibition)
Description: as §1, §2, §3

c-Src = c-Src (Homo sapiens, UniProt P12931); experiment: General kinase assay, selectivity panel: c-Src; type: biochemical; details: 10 μM of compound, in comparison to DMSO (0% inhibition)
Description: as §1, §2, §3

[1] = test system: NFκB-dependent transcriptional activity; experiment: NFκB-dependent transcriptional activity (NIH 3T3 75E 11/300D8 cell line); type: cell-based
From the text: NFκB-dependent Transcriptional Activity:
The used NIH 3T3 75E 11/300D8 cell line is described elsewhere (J. Eickhoff et al., Journal of Biological Chemistry, 2004, 279(10), 9642-9652).
It is known, that CDK9 regulates the NFκB-dependent transitional activity. With Compound 4, Compound 7 and Compound 30 studies were done, to evaluate their effect on NFκB-dependent transcriptional activity.

[2] = test system: CDK9-dependent phosphorylation of RNA-polymerase II; experiment: Determination of RNA polymerase II C-terminal domain phosphorylation (western blot, PM1 cells); type: cell-based
Description: Determination of RNA Polymerase II C-terminal Domain Phosphorylation: The phosphorylation status of RNA polymerase II C-terminal domain was determined by western blot techniques. PM1 cells were seeded in 6-well plates at a density of 5×10^5 per well. After over night incubation cells were treated with compound as indicated in the respective experiments. Cells were pelleted and lysed with 300 μL 3× Laemmli buffer followed by 30 min denaturing at 65° C. After separation of equal lysate volumes by SDS-PAGE the proteins were transferred to nitrocellulose membranes (Schleicher&Schuell) and probed with anti-[…] (H5), anti-[…] (H14) or RNA Poll II-antibodies purchased from Eurogentec and Santa Cruz, respectively. The amount of reactive protein was visualized by ECL detection methods (Amersham). In order to see, if the compounds according to the general formula (I) do have the intrinsic capacity to penetrate cells and act against cellular target proteins, especially CDK9, the effect of Compound 30 on CDK9-dependent phosphorylation of RNA-polymerase II was investigated.

HCMV strain AD169 = experiment: HCMV replication assay in HFF cells (EGFP); type: cell-based; details: strain AD 169 in HFF cells
Description: Human foreskin fibroblasts (HFF) cell culture were grown in DMEM containing 10% FCS. For HCMV-replication assays, HFF cells were infected with HCMV strain AD169 producing EGFP (HCMV AD169-GFP; 27). 1 h post infection, medium was changed with medium containing the indicated compound concentration (0.3 μM, 1 μM and 3 μM, respectively) After incubation of 7 days cells were lysed (in 25 mM Tris, pH 7.5, 2 mM DTT, 1% Triton X-100 and 10% glycerol) and analysed for EGFP content in a Wallac Victor fluorescence detector.

HBV = HBV replication assay in HepG2-2.2.15 cells; type: cell-based
Description: To test anti—HBV-activity of compounds the HBV-producing cell line HepG2-2.2.15 (M. A. Sells, PNAS 1987, 84, 1005-1009) was used. 1.0×10^4 cells were seeded in 96-well microtiter plates in DMEM medium supplemented with 10% FCS. After incubation at 37° C. in 5% CO2 atmosphere for 24 hours the medium was replaced with fresh medium containing the appropriately diluted compound. 3 days later medium was replaced by freshly prepared inhibitor-containing medium and the cells were incubated for further 3 days. Subsequently 200 μl lysis buffer (50 mM Tris-Cl 7.5; 1 mM EDTA 8.0; 0.5% NP40) per well was added. To remove cell debris and […], lysate was centrifuged (15000 rpm, 10 min, 4° C.). Cellular and viral RNA was removed by addition of 2 μl of RNase. 100 μl of the samples were spotted onto an uncharged nylon membrane pre-wetted with PBS (phosphate-buffered saline) using a 96 well-blotting chamber (MINIfold Dot-Blot, Schleicher&Schüll). After further washing with 200 μl PBS per well the membrane was treated twice with 0.5 M NaOH, 1.5 M NaCl (2 min) and 4 times with 0.5 M Tris 7.5, 3 M NaCl (1 min). The nucleic acids were fixed by UV-treatment and used for hybridisabon with a radioactive HBV-fragment prepared from the overgenome-length HBV-plasmid pT-HBV1.3 (L. G. Guidotti et al., Journal of Virology 1995., 69(10), 6158-6169).
The fixed membrane was pre-hybridized in a standard hybridisation buffer (50% formamide, 5×SSPE, 10×Denhards, 1% SDS, 100 μg/ml salmon sperm DNA) for at least 3 hours at 42° C. and hybridised overnight against the labelled HBV-fragment. The preparation of the HBV-fragment with the “Random primers DNA labelling system” (Invitrogen) was done according to the manufacturer's instructions. Hybridized filter were washed at room temperature with 2×SSC, at 62° C. with 2×SSC, 0.5% SDS and at 62° C. with 0.5×SSC, 0.5% SDS. Each washing step was carried out twice. The intensity of the HBV-DNA was quantified using a phosphoimager (Fuji). […] Absorbance was monitored at 570 nm and 600 nm wavelength.

EGFR, sequence (P00533 25-1210, species assumed): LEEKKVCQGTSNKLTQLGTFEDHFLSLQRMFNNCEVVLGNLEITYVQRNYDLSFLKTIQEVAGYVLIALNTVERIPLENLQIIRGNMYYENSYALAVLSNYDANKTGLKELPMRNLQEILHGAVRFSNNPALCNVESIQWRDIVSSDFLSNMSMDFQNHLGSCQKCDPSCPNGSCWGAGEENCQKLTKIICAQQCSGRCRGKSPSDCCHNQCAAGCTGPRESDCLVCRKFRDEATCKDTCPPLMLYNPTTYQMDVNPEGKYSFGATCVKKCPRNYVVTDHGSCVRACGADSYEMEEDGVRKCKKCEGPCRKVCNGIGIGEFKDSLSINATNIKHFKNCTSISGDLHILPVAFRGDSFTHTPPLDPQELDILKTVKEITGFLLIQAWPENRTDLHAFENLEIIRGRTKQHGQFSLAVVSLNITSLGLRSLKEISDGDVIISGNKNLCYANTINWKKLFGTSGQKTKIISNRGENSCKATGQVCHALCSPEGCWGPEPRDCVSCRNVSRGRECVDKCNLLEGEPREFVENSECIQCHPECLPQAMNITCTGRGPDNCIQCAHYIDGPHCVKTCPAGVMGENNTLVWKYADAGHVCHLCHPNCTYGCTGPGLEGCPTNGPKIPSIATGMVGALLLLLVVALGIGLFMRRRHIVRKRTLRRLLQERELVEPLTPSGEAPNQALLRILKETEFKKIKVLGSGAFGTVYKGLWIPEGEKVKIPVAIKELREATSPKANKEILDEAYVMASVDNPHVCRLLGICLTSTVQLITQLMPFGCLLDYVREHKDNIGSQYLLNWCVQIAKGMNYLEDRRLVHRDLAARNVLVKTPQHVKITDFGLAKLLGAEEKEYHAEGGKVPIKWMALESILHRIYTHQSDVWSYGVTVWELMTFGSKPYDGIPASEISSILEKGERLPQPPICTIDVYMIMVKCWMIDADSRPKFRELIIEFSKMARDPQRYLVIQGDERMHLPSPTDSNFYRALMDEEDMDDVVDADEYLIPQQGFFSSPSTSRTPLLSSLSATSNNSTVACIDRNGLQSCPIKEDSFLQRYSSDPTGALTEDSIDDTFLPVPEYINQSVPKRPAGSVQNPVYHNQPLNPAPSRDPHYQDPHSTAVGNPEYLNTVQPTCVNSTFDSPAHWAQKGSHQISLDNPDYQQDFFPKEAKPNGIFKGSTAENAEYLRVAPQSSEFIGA
Abl, sequence (P00519 whole entry, species assumed): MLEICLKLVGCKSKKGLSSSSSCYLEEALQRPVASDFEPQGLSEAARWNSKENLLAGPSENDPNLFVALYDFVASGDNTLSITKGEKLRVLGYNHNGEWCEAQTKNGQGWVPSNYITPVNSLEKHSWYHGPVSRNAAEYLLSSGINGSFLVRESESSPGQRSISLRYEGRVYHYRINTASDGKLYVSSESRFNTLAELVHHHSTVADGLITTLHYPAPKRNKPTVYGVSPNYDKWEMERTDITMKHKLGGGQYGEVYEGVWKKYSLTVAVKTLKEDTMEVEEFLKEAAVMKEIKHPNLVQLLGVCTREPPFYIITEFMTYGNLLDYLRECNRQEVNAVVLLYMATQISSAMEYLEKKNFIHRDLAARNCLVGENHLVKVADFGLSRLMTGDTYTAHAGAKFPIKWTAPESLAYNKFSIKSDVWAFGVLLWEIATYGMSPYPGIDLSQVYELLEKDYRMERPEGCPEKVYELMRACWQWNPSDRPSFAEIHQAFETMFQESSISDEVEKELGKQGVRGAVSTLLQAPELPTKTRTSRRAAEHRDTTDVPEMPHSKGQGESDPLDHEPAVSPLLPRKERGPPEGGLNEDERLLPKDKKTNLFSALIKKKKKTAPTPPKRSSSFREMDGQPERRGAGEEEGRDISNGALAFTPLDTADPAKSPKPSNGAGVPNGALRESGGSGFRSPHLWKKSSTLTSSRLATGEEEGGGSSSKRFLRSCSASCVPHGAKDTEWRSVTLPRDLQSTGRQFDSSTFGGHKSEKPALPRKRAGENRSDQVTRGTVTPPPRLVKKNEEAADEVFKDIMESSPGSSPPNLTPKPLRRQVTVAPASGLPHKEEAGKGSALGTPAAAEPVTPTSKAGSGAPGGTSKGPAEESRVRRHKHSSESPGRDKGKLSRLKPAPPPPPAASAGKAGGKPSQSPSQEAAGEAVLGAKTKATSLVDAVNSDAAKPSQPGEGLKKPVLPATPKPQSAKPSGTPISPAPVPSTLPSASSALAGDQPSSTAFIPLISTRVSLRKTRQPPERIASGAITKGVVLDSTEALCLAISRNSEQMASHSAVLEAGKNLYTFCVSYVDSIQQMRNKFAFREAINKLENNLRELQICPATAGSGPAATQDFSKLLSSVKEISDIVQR
c-Src, sequence (P12931 whole entry, species assumed): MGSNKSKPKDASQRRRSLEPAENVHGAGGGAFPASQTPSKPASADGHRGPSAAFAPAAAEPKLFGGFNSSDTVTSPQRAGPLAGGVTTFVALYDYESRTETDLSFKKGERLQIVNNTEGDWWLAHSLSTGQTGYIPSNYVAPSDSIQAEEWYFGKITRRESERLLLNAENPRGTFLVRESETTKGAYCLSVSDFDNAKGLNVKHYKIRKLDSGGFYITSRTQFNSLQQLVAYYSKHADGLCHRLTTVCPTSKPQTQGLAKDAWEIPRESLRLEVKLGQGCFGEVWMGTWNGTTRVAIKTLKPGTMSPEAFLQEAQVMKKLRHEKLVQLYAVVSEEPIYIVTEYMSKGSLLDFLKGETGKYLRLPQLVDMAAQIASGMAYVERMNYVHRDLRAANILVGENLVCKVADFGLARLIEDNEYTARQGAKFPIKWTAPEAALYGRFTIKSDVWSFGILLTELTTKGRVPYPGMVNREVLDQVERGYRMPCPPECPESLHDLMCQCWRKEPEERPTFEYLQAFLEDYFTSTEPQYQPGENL
GSK-3β, sequence (P49841 whole entry, species assumed): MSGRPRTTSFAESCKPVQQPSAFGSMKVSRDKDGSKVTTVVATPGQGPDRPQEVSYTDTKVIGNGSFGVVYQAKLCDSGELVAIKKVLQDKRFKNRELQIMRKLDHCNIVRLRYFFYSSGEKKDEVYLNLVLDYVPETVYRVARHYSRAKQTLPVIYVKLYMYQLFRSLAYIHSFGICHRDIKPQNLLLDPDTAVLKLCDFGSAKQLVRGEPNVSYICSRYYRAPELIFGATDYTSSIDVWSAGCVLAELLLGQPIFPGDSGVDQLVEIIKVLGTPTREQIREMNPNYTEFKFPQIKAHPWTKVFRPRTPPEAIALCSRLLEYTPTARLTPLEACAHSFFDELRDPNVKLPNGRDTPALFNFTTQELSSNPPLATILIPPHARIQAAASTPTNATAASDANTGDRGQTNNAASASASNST
p56 Lck, sequence (P06239 whole entry): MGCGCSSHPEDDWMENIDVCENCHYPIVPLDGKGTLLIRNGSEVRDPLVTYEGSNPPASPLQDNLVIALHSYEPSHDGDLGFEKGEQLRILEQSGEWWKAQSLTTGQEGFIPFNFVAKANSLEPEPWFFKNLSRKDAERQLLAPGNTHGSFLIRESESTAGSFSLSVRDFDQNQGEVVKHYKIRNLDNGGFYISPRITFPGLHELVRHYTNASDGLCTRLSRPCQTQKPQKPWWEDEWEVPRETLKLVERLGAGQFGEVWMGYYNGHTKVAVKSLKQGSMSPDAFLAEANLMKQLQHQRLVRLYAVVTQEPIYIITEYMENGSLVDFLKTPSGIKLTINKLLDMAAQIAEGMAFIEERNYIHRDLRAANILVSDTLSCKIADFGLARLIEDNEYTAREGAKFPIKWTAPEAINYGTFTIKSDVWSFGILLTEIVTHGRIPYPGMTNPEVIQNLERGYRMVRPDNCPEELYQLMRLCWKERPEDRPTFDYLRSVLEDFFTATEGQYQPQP
c-Kit, sequence (P10721 26-976): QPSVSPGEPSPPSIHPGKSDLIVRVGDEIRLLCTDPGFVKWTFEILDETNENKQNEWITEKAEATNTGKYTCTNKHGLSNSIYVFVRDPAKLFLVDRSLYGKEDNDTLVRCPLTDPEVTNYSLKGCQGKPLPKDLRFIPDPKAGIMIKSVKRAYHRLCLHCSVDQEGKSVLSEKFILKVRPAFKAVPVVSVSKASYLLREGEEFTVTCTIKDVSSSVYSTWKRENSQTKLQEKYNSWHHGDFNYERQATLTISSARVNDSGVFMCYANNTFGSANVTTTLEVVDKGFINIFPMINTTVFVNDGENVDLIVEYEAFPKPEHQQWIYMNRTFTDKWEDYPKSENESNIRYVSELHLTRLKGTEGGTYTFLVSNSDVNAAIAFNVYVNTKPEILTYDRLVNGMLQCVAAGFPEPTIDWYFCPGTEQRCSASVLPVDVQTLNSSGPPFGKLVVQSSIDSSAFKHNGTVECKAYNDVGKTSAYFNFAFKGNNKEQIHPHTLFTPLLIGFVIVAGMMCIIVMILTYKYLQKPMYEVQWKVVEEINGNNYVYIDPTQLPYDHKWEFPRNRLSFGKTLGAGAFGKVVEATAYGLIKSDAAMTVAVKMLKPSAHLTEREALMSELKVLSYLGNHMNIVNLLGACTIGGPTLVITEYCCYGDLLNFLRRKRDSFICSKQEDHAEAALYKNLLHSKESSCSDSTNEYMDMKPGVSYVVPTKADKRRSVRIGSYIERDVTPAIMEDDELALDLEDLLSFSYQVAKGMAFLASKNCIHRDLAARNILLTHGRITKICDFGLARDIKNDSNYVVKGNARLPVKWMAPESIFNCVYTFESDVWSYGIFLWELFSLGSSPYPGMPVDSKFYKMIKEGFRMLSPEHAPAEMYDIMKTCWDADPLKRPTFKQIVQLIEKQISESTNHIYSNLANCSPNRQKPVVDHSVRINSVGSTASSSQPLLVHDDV

CDK2 inhibition (in words) (CDK2/CyclinA)	RSK1 (% inhibition) (RSK1)	CDK1 (% inhibition) (CDK1)	EGFR (% inhibition) (EGFR)	c-Kit (% inhibition) (c-Kit)	PDGFR (% inhibition) (PDGFR)	GSK-3β (% inhibition) (GSK-3β)	p56 Lck (% inhibition) (p56 Lck)	cMet (% inhibition) (cMet)	Abl (% inhibition) (Abl)	c-Src (% inhibition) (c-Src)	SMILES	effect on growth of PM1 cells (in words) (PM1 cells)	TNF-α stimulated NFκB-dependent promoter activity ([1]; 1 μM final concentration, TNF-α stimulated)	NFκB-dependent promoter activity under non-stimulated conditions ([1]; non-stimulated conditions)	EC50 ([1]; titration) [nM]	molecular weight of RNA polymerase II [2]	serine 2 phosphorylation of RNA polymerase II ([2]; anti-SER2 (H5))	serine 5 phosphorylation of RNA polymerase II ([2]; anti-SER5 (H14))	HCMV replication (in words) (HCMV strain AD169)	HBV replication (in words) (HBV)
tendency to inhibit potently	–	–	–	–	–	–	–	–	–	–	COC(=O)CN(c1ccc(Nc2cc(-c3ccccc3OC)ncn2)cc1)S(=O)(=O)c1ccc(C)cc1 [Compound 28]	affect severely	–	–	–	–	–	–	–	–
tendency to inhibit potently	c (inhibition between 50 and 30%: c)	a (inhibition greater than 80%: a)	b (inhibition between 80 and 50%: b)	c (inhibition between 50 and 30%: c)	c (inhibition between 50 and 30%: c)	b (inhibition between 80 and 50%: b)	b (inhibition between 80 and 50%: b)	–	–	–	COc1ccccc1-c1cc(Nc2ccc(N3CCCC3=O)cc2)ncn1 [Compound 9]	affect severely	–	–	–	–	–	–	–	–
–	b (inhibition between 80 and 50%: b)	a (inhibition greater than 80%: a)	a (inhibition greater than 80%: a)	b (inhibition between 80 and 50%: b)	b (inhibition between 80 and 50%: b)	–	b (inhibition between 80 and 50%: b)	c (inhibition between 50 and 30%: c)	b (inhibition between 80 and 50%: b)	–	COc1ccccc1-c1cc(Nc2ccc(NC(=O)C3CCCN(C)C3)cc2)ncn1 (stereo not drawn) [Compound 87]	–	–	–	–	–	–	–	–	–
–	–	a (inhibition greater than 80%: a)	b (inhibition between 80 and 50%: b)	–	c (inhibition between 50 and 30%: c)	a (inhibition greater than 80%: a)	b (inhibition between 80 and 50%: b)	–	–	b (inhibition between 80 and 50%: b)	NC(=O)c1ccc(Nc2cc(-c3ccccc3OCc3ccccc3)ncn2)cc1 [Compound 95]	–	–	–	–	–	–	–	–	–
–	–	a (inhibition greater than 80%: a)	b (inhibition between 80 and 50%: b)	b (inhibition between 80 and 50%: b)	b (inhibition between 80 and 50%: b)	c (inhibition between 50 and 30%: c)	b (inhibition between 80 and 50%: b)	b (inhibition between 80 and 50%: b)	c (inhibition between 50 and 30%: c)	b (inhibition between 80 and 50%: b)	COc1ccccc1-c1cc(Nc2ccc(C(=O)N[C@@H]3CCCC[C@H]3N)cc2)ncn1 (racemic) [Compound 83]	–	–	–	–	–	–	–	–	–

SMILES	CDK2 inhibition (in words) (CDK2/CyclinA)	RSK1 (% inhibition) (RSK1)	CDK1 (% inhibition) (CDK1)	EGFR (% inhibition) (EGFR)	c-Kit (% inhibition) (c-Kit)	PDGFR (% inhibition) (PDGFR)	GSK-3β (% inhibition) (GSK-3β)	p56 Lck (% inhibition) (p56 Lck)	cMet (% inhibition) (cMet)	Abl (% inhibition) (Abl)	c-Src (% inhibition) (c-Src)	effect on growth of PM1 cells (in words) (PM1 cells)	TNF-α stimulated NFκB-dependent promoter activity ([1]; 1 μM final concentration, TNF-α stimulated)	NFκB-dependent promoter activity under non-stimulated conditions ([1]; non-stimulated conditions)	EC50 ([1]; titration) [nM]	molecular weight of RNA polymerase II [2]	serine 2 phosphorylation of RNA polymerase II ([2]; anti-SER2 (H5))	serine 5 phosphorylation of RNA polymerase II ([2]; anti-SER5 (H14))	HCMV replication (in words) (HCMV strain AD169)	HBV replication (in words) (HBV)
COc1ccccc1-c1cc(Nc2ccc(NC(=O)[C@@H]3CCCCN3)cc2)ncn1 [Compound 30]	–	–	a (inhibition greater than 80%: a)	a (inhibition greater than 80%: a)	b (inhibition between 80 and 50%: b)	c (inhibition between 50 and 30%: c)	c (inhibition between 50 and 30%: c)	b (inhibition between 80 and 50%: b)	c (inhibition between 50 and 30%: c)	b (inhibition between 80 and 50%: b)	b (inhibition between 80 and 50%: b)	–	able, to affect	no inhibition was observed	~1000	reduction	decreased	did not show any differences	showed inhibition	inactive
